Reference: patent publication US20260001928A1 (CORTERIA PHARMACEUTICALS, priority 2022, published 2026)
*1 amine or outer side, *2 acyl side, *3 side chain or, on linkers, in order; H or OH if unused. Where a SMILES comes first, the peptide text is derived from it. Side-chain parts run from the residue outwards. [ ]: non-standard residue; d: D form. The star is where a group is joined. C18 diacid = O=C(O)CCCCCCCCCCCCCCCCC(=O)*; γGlu = O=C(O)[C@H](CCC(=O)[*:2])N[*:1]; NMeI = CC[C@H](C)[C@H](NC)C(=O)O; Pentanoyl = CCCCC(=O)*; AEEA = NCCOCCOCC(=O)O; Aib = CC(C)(N)C(=O)O

Biological target: T1, CFR1R receptor (Homo sapiens, UniProt P34998)
T1 construct: host or cells: CHO-K1 (clone 2)
T1 sequence (P34998 24-415): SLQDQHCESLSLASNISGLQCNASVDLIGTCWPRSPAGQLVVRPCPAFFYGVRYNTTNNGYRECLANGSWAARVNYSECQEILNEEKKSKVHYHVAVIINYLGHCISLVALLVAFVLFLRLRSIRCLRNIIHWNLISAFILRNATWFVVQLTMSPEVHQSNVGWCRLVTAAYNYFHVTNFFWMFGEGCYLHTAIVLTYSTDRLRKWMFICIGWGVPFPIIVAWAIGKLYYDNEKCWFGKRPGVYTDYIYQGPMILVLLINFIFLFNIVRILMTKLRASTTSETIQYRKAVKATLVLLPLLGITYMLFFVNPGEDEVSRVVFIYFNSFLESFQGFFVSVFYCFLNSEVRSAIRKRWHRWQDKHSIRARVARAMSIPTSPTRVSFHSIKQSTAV
Test: Activity at anti-target CFR1R receptor, cAMP assay in CRF1R-overexpression CHO-K1 cells
Type: cell-based
Details: 100% = Sauvagine at 100 nM
Description: Assessment of activity at anti-target CFR1R receptor is done using the same procedure as the one described for the TeloHEAC cell line. The CRF1R-overexpression CHO-K1 cell line clone 2 was purchased from PerkinElmer. Cells were grown in a 10 cm dish at 37° C./5% CO2 in medium (F12 (Hams)/10% FBS/400 μg/ml G418) to near confluence. At that stage, cells were harvested, resuspended to 10 million/mL in culture medium without G418 and with 10% DMSO. 1 mL vial aliquots were slowly frozen to −80° C. in isopropanol and then transferred in liquid nitrogen for storage. These vials were used to run the experiment following the procedure reported in the previous paragraph, except for the compound used in the control well to define the 100% activation (Sauvagine at 100 nM) and the cell density (final cell density: 4000 cells/well)

Row | Emax (% I) | Structure (SMILES)
1 | 6 | CC[C@H](C)[C@H](NC)C(=O)N[C@H](C(=O)N[C@@H](CC(C)C)C(=O)N[C@@H](CO)C(=O)N[C@@H](CC(C)C)C(=O)N[C@@H](CC(=O)O)C(=O)N[C@@H](C(=O)N1CCC[C@H]1C(=O)N[C@H](C(=O)N[C@@H](CCCCN)C(=O)N[C@@H](CC(C)C)C(=O)N[C@@H](CCCCNC(=O)COCCOCCNC(=O)COCCOCCNC(=O)CC[C@H](NC(=O)CC[C@H](NC(=O)CCCCCCCCCCCCCCCCC(=O)O)C(=O)O)C(=O)O)C(=O)N[C@@H](CCC(N)=O)C(=O)NC(C)(C)C(=O)N[C@@H](CC(C)C)C(=O)N[C@@H](CC(C)C)C(=O)N[C@@H](CCCCN)C(=O)N[C@@H](CCC(N)=O)C(=O)N[C@@H](CCC(=O)O)C(=O)N[C@@H](CCCNC(=N)N)C(=O)N[C@@H](CCC(N)=O)C(=O)N[C@@H](CCCCN)C(=O)N[C@@H](CCCCN)C(=O)N[C@@H](CCC(N)=O)C(=O)N[C@@H](CCCNC(=N)N)C(=O)N[C@@H](CCC(=O)O)C(=O)N[C@@H](CCC(N)=O)C(=O)N[C@@H](C)C(=O)N[C@@H](CCC(=O)O)C(=O)N[C@@H](CCCCN)C(=O)N[C@@H](CC(N)=O)C(=O)N[C@H](C(=O)N[C@@H](CCC(N)=O)C(=O)N[C@H](C(=O)N[C@@H](CC(C)C)C(=O)N[C@@H](CCC(=O)O)C(=O)N[C@@H](CCC(N)=O)C(=O)N[C@H](C(N)=O)C(C)C)[C@@H](C)CC)C(C)C)[C@@H](C)CC)C(C)C)C(C)C [compound 28] (H-[NMeI]VLSLD[dV]PIKLK([AEEA-AEEA-γGlu-γGlu-C18 diacid])Q[Aib]LLKQERQKKQREQAEKNVQILEQV-NH2)
2 | 15 | CC[C@H](C)[C@H](NC(C)=O)C(=O)N[C@H](C(=O)N[C@@H](CC(C)C)C(=O)N[C@@H](CO)C(=O)N[C@@H](CC(C)C)C(=O)N[C@@H](CC(=O)O)C(=O)N[C@@H](C(=O)N1CCC[C@H]1C(=O)N[C@H](C(=O)N[C@@H](CCCCN)C(=O)N[C@@H](CC(C)C)C(=O)N[C@@H](CCCCNC(=O)COCCOCCNC(=O)COCCOCCNC(=O)CC[C@H](NC(=O)CC[C@H](NC(=O)CCCCCCCCCCCCCCCCC(=O)O)C(=O)O)C(=O)O)C(=O)N[C@@H](CCC(N)=O)C(=O)N[C@H](C(=O)N[C@@H](CC(C)C)C(=O)N[C@@H](CC(C)C)C(=O)N[C@@H](CCCCN)C(=O)N[C@@H](CCC(N)=O)C(=O)N[C@@H](CCC(=O)O)C(=O)N[C@@H](CCCNC(=N)N)C(=O)N[C@@H](CCC(N)=O)C(=O)N[C@@H](CCCCN)C(=O)N[C@@H](CCCCN)C(=O)N[C@@H](CCC(N)=O)C(=O)N[C@@H](CCCNC(=N)N)C(=O)N[C@@H](CCC(=O)O)C(=O)N[C@@H](CCC(N)=O)C(=O)N[C@@H](C)C(=O)N[C@@H](CCC(=O)O)C(=O)N[C@@H](CCCCN)C(=O)N[C@@H](CC(N)=O)C(=O)NC(C)(C)C(=O)N[C@@H](CCC(N)=O)C(=O)N[C@H](C(=O)N[C@@H](CC(C)C)C(=O)N[C@@H](CCC(=O)O)C(=O)N[C@@H](CCC(N)=O)C(=O)N[C@H](C(N)=O)C(C)C)[C@@H](C)CC)[C@@H](C)CC)[C@@H](C)CC)C(C)C)C(C)C [compound 30] (Ac-IVLSLD[dV]PIKLK([AEEA-AEEA-γGlu-γGlu-C18 diacid])QILLKQERQKKQREQAEKN[Aib]QILEQV-NH2)
3 | 5 | CCCCC(=O)N[C@H](C(=O)N[C@@H](CC(C)C)C(=O)N[C@@H](CO)C(=O)N[C@@H](CC(C)C)C(=O)N[C@@H](CC(=O)O)C(=O)N[C@@H](C(=O)N1CCC[C@H]1C(=O)N[C@H](C(=O)N[C@@H](CCCCN)C(=O)N[C@@H](CC(C)C)C(=O)N[C@@H](CCCCNC(=O)COCCOCCNC(=O)COCCOCCNC(=O)CC[C@H](NC(=O)CC[C@H](NC(=O)CCCCCCCCCCCCCCCCC(=O)O)C(=O)O)C(=O)O)C(=O)N[C@@H](CCC(N)=O)C(=O)N[C@H](C(=O)N[C@@H](CC(C)C)C(=O)N[C@@H](CC(C)C)C(=O)N[C@@H](CCCCN)C(=O)N[C@@H](CCC(N)=O)C(=O)N[C@@H](CCC(=O)O)C(=O)N[C@@H](CCCNC(=N)N)C(=O)N[C@@H](CCC(N)=O)C(=O)N[C@@H](CCCCN)C(=O)N[C@@H](CCCCN)C(=O)N[C@@H](CCC(N)=O)C(=O)N[C@@H](CCCNC(=N)N)C(=O)N[C@@H](CCC(=O)O)C(=O)N[C@@H](CCC(N)=O)C(=O)N[C@@H](C)C(=O)N[C@@H](CCC(=O)O)C(=O)N[C@@H](CCCCN)C(=O)N[C@@H](CC(N)=O)C(=O)NC(C)(C)C(=O)N[C@@H](CCC(N)=O)C(=O)N[C@H](C(=O)N[C@@H](CC(C)C)C(=O)N[C@@H](CCC(=O)O)C(=O)N[C@@H](CCC(N)=O)C(=O)N[C@H](C(N)=O)C(C)C)[C@@H](C)CC)[C@@H](C)CC)[C@@H](C)CC)C(C)C)C(C)C [compound 32] (Pentanoyl-VLSLD[dV]PIKLK([AEEA-AEEA-γGlu-γGlu-C18 diacid])QILLKQERQKKQREQAEKN[Aib]QILEQV-NH2)

Continued, compound first:

Row | Structure (SMILES) | Emax (% I)
4 | CC[C@H](C)[C@H](NC(C)=O)C(=O)N[C@H](C(=O)N[C@@H](CC(C)C)C(=O)N[C@@H](CO)C(=O)N[C@@H](CC(C)C)C(=O)N[C@@H](CC(=O)O)C(=O)N[C@@H](C(=O)N1CCC[C@H]1C(=O)N[C@H](C(=O)N[C@@H](CCCCN)C(=O)N[C@@H](CC(C)C)C(=O)N[C@@H](CCCCNC(=O)COCCOCCNC(=O)COCCOCCNC(=O)CC[C@H](NC(=O)CC[C@H](NC(=O)CCCCCCCCCCCCCCCCC(=O)O)C(=O)O)C(=O)O)C(=O)N[C@@H](CCC(N)=O)C(=O)NC(C)(C)C(=O)N[C@@H](CC(C)C)C(=O)N[C@@H](CC(C)C)C(=O)N[C@@H](CCCCN)C(=O)N[C@@H](CCC(N)=O)C(=O)N[C@@H](CCC(=O)O)C(=O)N[C@@H](CCCNC(=N)N)C(=O)N[C@@H](CCC(N)=O)C(=O)N[C@@H](CCCCN)C(=O)N[C@@H](CCCCN)C(=O)N[C@@H](CCC(N)=O)C(=O)N[C@@H](CCCNC(=N)N)C(=O)N[C@@H](CCC(=O)O)C(=O)N[C@@H](CCC(N)=O)C(=O)N[C@@H](C)C(=O)N[C@@H](CCC(=O)O)C(=O)N[C@@H](CCCCN)C(=O)N[C@@H](CC(N)=O)C(=O)N[C@H](C(=O)N[C@@H](CCC(N)=O)C(=O)N[C@H](C(=O)N[C@@H](CC(C)C)C(=O)N[C@@H](CCC(=O)O)C(=O)N[C@@H](CCC(N)=O)C(=O)N[C@H](C(N)=O)C(C)C)[C@@H](C)CC)C(C)C)[C@@H](C)CC)C(C)C)C(C)C [compound 27] (Ac-IVLSLD[dV]PIKLK([AEEA-AEEA-γGlu-γGlu-C18 diacid])Q[Aib]LLKQERQKKQREQAEKNVQILEQV-NH2) | 7
5 | CCCCC(=O)N[C@H](C(=O)N[C@@H](CC(C)C)C(=O)N[C@@H](CO)C(=O)N[C@@H](CC(C)C)C(=O)N[C@@H](CC(=O)O)C(=O)N[C@@H](C(=O)N1CCC[C@H]1C(=O)N[C@H](C(=O)N[C@@H](CCCCN)C(=O)N[C@@H](CC(C)C)C(=O)N[C@@H](CCCCNC(=O)COCCOCCNC(=O)COCCOCCNC(=O)CC[C@H](NC(=O)CC[C@H](NC(=O)CCCCCCCCCCCCCCCCC(=O)O)C(=O)O)C(=O)O)C(=O)N[C@@H](CCC(N)=O)C(=O)NC(C)(C)C(=O)N[C@@H](CC(C)C)C(=O)N[C@@H](CC(C)C)C(=O)N[C@@H](CCCCN)C(=O)N[C@@H](CCC(N)=O)C(=O)N[C@@H](CCC(=O)O)C(=O)N[C@@H](CCCNC(=N)N)C(=O)N[C@@H](CCC(N)=O)C(=O)N[C@@H](CCCCN)C(=O)N[C@@H](CCCCN)C(=O)N[C@@H](CCC(N)=O)C(=O)N[C@@H](CCCNC(=N)N)C(=O)N[C@@H](CCC(=O)O)C(=O)N[C@@H](CCC(N)=O)C(=O)N[C@@H](C)C(=O)N[C@@H](CCC(=O)O)C(=O)N[C@@H](CCCCN)C(=O)N[C@@H](CC(N)=O)C(=O)N[C@H](C(=O)N[C@@H](CCC(N)=O)C(=O)N[C@H](C(=O)N[C@@H](CC(C)C)C(=O)N[C@@H](CCC(=O)O)C(=O)N[C@@H](CCC(N)=O)C(=O)N[C@H](C(N)=O)C(C)C)[C@@H](C)CC)C(C)C)[C@@H](C)CC)C(C)C)C(C)C [compound 29] (Pentanoyl-VLSLD[dV]PIKLK([AEEA-AEEA-γGlu-γGlu-C18 diacid])Q[Aib]LLKQERQKKQREQAEKNVQILEQV-NH2) | 6
6 | CC[C@H](C)[C@H](NC)C(=O)N[C@H](C(=O)N[C@@H](CC(C)C)C(=O)N[C@@H](CO)C(=O)N[C@@H](CC(C)C)C(=O)N[C@@H](CC(=O)O)C(=O)N[C@@H](C(=O)N1CCC[C@H]1C(=O)N[C@H](C(=O)N[C@@H](CCCCN)C(=O)N[C@@H](CC(C)C)C(=O)N[C@@H](CCCCNC(=O)COCCOCCNC(=O)COCCOCCNC(=O)CC[C@H](NC(=O)CC[C@H](NC(=O)CCCCCCCCCCCCCCCCC(=O)O)C(=O)O)C(=O)O)C(=O)N[C@@H](CCC(N)=O)C(=O)N[C@H](C(=O)N[C@@H](CC(C)C)C(=O)N[C@@H](CC(C)C)C(=O)N[C@@H](CCCCN)C(=O)N[C@@H](CCC(N)=O)C(=O)N[C@@H](CCC(=O)O)C(=O)N[C@@H](CCCNC(=N)N)C(=O)N[C@@H](CCC(N)=O)C(=O)N[C@@H](CCCCN)C(=O)N[C@@H](CCCCN)C(=O)N[C@@H](CCC(N)=O)C(=O)N[C@@H](CCCNC(=N)N)C(=O)N[C@@H](CCC(=O)O)C(=O)N[C@@H](CCC(N)=O)C(=O)N[C@@H](C)C(=O)N[C@@H](CCC(=O)O)C(=O)N[C@@H](CCCCN)C(=O)N[C@@H](CC(N)=O)C(=O)NC(C)(C)C(=O)N[C@@H](CCC(N)=O)C(=O)N[C@H](C(=O)N[C@@H](CC(C)C)C(=O)N[C@@H](CCC(=O)O)C(=O)N[C@@H](CCC(N)=O)C(=O)N[C@H](C(N)=O)C(C)C)[C@@H](C)CC)[C@@H](C)CC)[C@@H](C)CC)C(C)C)C(C)C [compound 31] (H-[NMeI]VLSLD[dV]PIKLK([AEEA-AEEA-γGlu-γGlu-C18 diacid])QILLKQERQKKQREQAEKN[Aib]QILEQV-NH2) | 14
